In patent publication US5071857A, “2,6-dioxopiperidine derivatives, their preparation and pharmaceutical compositions containing them” (National Research Development Corporation, priority 1983, dated 1991):

Assays:
aromatase = target: T1, aromatase (Homo sapiens, UniProt P11511); assay: Inhibition of aromatase (microsomal fraction of human placental tissue, 3H2O release from (1,2-3H) testosterone); assay type: biochemical
T1 construct: Aromatase was obtained from the microsomal fraction of human placental tissue; from tissue; host or cells: human placenta, microsomal fraction
T1 sequence (P11511 1-503): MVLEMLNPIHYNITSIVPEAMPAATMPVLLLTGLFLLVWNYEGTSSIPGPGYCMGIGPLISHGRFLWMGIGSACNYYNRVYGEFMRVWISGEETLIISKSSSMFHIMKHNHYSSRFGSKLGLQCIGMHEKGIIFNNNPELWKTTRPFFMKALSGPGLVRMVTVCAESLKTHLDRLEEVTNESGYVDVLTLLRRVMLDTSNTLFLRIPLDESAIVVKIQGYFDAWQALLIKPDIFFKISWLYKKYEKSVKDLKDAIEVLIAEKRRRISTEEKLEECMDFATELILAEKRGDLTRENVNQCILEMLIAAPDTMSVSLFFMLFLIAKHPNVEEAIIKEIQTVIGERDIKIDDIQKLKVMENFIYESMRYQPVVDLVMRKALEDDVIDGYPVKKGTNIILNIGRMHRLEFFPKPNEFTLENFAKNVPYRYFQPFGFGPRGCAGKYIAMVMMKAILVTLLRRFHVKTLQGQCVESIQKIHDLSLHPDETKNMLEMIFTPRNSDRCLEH
Method: The activity of various glutarimides against the enzymes aromatase and desmolase was assayed as follows. Each compound was examined over a range of concentrations. At each concentration of inhibitor, samples were removed at three time points. The results were plotted on a graph of product released against time of incubation. The resulting linear graph was used to determine the rate of enzyme reaction at each concentration of inhibitor.
A. Desmolase The mitochondrial fraction of bovine adrenal cortex provided the source of desmolase and the method of isolation was essentially as published by R. B. Hochberg et al., Biochemistry, 13, 603 (1974). The enzyme activity was assayed using (26-^14 C)-cholesterol as substrate and measuring the ^14 C-isocaproic acid released, see R. B. Hochberg et al., supra. and V. I. Uzgiris et al., Endocrinology, 101, 89 (1977). Inhibitor compounds were added in ethanol (microliters) and an equal volume of ethanol was added to the control assay. The total volume of the assay mixture was 1.0 ml. After preincubating the assay tubes at 30° C. for 5 minutes, the reaction was started by the addition of 1 mg of mitochondrial protein. Samples were removed after 2,4 and 6 minutes of incubation and the assay completed as described.

desmolase [1] = target: T2, desmolase (Bos taurus, UniProt P00189); assay: Inhibition of desmolase (mitochondrial fraction of bovine adrenal cortex, 14C-isocaproic acid release from (26-14C)-cholesterol); assay type: biochemical
T2 construct: The mitochondrial fraction of bovine adrenal cortex provided the source of desmolase; from tissue; host or cells: bovine adrenal cortex, mitochondrial fraction
T2 sequence (P00189 40-520): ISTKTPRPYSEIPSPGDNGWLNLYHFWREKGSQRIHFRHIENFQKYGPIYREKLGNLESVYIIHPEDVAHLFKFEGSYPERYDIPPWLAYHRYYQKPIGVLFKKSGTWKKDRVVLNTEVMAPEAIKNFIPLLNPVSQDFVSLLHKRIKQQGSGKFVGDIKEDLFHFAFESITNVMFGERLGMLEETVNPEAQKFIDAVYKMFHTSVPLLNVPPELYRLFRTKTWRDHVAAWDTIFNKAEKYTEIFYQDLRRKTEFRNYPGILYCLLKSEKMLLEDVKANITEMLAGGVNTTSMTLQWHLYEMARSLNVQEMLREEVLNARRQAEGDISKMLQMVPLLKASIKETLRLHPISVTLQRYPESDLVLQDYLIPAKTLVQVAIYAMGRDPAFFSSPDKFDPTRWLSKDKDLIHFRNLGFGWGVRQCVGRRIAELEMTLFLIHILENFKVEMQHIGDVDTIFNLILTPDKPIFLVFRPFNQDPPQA

central nervous system [2] = assay: Studies on anticonvulsant properties, pentylenetetrazol-induced convulsions; conditions: for prevention of pentylenetetrazol-induced convulsions: pentylenetetrazol 50 mg/kg
[3] = test system: Rat mammary tumours induced with MNU (N-methyl-N-nitrosourea); assay: Tests in vivo on tumour regression, MNU-induced rat mammary tumours; set-up: species or system rat (Ludwig Wistar/Ola, WF/ICRF/Ola, female); conditions: for percentage of tumours which regress (in words): 42 days; for percentage of tumours which regress (in words) / No. tumours grown by more than 100% / No. tumours grown by up to 100% / No. tumours regressed but by less than 50% / No. tumours regressed by 50% or more / No. tumours with no change: 0.165 millimoles/kg/day s.c.; for No. tumours grown by more than 100% / No. tumours grown by up to 100% / No. tumours regressed but by less than 50% / No. tumours regressed by 50% or more / No. tumours with no change: after 6 weeks (42 days)
Method: Unlike DMBA (7,12-dimethylbenz[a]anthracene) induced tumours, MNU tumours may be primarily oestrogen-, rather than prolactin-dependent, see Pruitt, Rose and Bryan, Proc. Ann. Cancer Res. 20, 87, (1979).
Using the method of Williams et al., supra, mammary tumours were induced in virgin female rats of the inbred strain Ludwig Wistar/Ola (WF/ICRF/Ola) by intravenous administration of MNU. MNU was dissolved in 0.9% aqueous sodium chloride solution acidified to pH 5 with acetic acid. Starting at age 50 days, each rat received 3 injections at 14 day intervals via the tail vein (5 mg MNU/100 g body weight/injection; injection volume of 0.5 ml/rat). Animals were assigned to experimental groups at 125-140 days after the first injection, with 12 animals in each group. At this time they bore from 1-3 tumours per animal.
Controls received equivalent injections of DMSO alone.
Results were expressed in terms of the percentage of initial tumour volume for each tumour after 42 day, treatment.

[4] = Stability of injection solutions at pH 3.5-4; assay type: physicochemical
Method: This went into solution at low pH very nicely. M NaOH was added to pH 3.5-4. The volume was made up using deionized water.

desmolase [5] = conditions: background; cited from earlier work
central nervous system [6] = assay: Behavioral observations (Irwin observational assessment); conditions: for Passivity: rating 0-4, 20-30 minutes after injection
central nervous system [7] = assay: Rotating rod experiments (rotarod test), drug-induced ataxia; conditions: for time of peak effect after injection: i.p.
[8] = prior art; cited from earlier work
[9] = compared with aminoglutethimide

## CCC1(c2ccccn2)CCC(=O)NC1=O (stereo not drawn) [drawing 11]
aromatase
  IC50 Aromatase: None
Desmolase [1]; 7 micromolar (14C) cholesterol
  IC50 Desmolase: None

## CCC1(c2ccnc(C(C)(C)C)c2)CCC(=O)NC1=O (stereo not drawn) [Example 4]
aromatase; 1.5 micromolar (3H) testosterone
  IC50: 20 µM
Desmolase [1]; 7 micromolar (14C) cholesterol
  IC50 Desmolase: None

## C1CCc2nnnn2CC1 [Pentylenetetrazol, pentylenetetrazol, reference compound]
Central nervous system [2]; 50 mg/kg after NaCl vehicle, within 5 minutes
  convulsant activity: Increased motor activity was followed by tonic convulsions, then severe clonic extensor convulsions which caused death

## CCC1(c2ccc(N)cc2)CCC(=O)NC1=O (stereo not drawn) [aminoglutethimide, 3-ethyl-3-(4-aminophenyl)glutarimide, reference compound]
Desmolase [1]
  Desmolase inhibition: + + +
Desmolase [1]; 7 micromolar (14C) cholesterol
  IC50: 30 µM
[3]
  percentage of tumours which regress (in words): causes an increase in the percentage of tumours which regress
  No. tumours grown by more than 100%: 5 tumours
  No. tumours grown by up to 100%: 2 tumours
  No. tumours regressed but by less than 50%: 3 tumours
  No. tumours regressed by 50% or more: 4 tumours
  No. tumours with no change: 0 tumours
[4]; 40 mg in 2 ml
  time after which salt precipitated from solution: > 2 h
Desmolase [5]
  inhibition of desmolase: also inhibits the enzyme desmolase
Central nervous system [6]; 100 mg/kg i.p.
  Corneal reflex: +
  Flexor reflex: Inc
  Grooming: +
  Motor activity: Dec
  Righting reflex: +
  Tremors: -
  Twitches: -
  corneal, righting and flexor reflexes (in words): Corneal, righting and flexor reflexes were still apparent
  sedation (in words): marked sedation
  Passivity: 3
Central nervous system [6]; 100 mg/kg i.p., compared to untreated animals
  flexor reflex (in words): slightly augmented
Central nervous system [6]; 200 mg/kg i.p., three animals
  sleep (in words): all fell asleep within a few minutes of the injection
Central nervous system [7]; 100 mg/kg i.p. (Table 3)
  effect on motor co-ordination (in words): pronounced effect on motor co-ordination. Most of the mice were heavily sedated and thus completely unable to maintain themselves on the rod at either speed
Central nervous system [7]; 1 r.p.m., 15 min, 100 mg/kg i.p.
  Falls/2 min: 18.5 ± 3.5 Falls/2 min
Central nervous system [7]; 1 r.p.m., 30 min, 100 mg/kg i.p.
  Falls/2 min: 4.8 ± 2.0 Falls/2 min
Central nervous system [7]; 3 r.p.m., 15 min, 100 mg/kg i.p.
  Falls/2 min: 27.0 ± 2.0 Falls/2 min
Central nervous system [7]
  time of peak effect after injection: 15 min
Central nervous system [2]; i.p., dose not stated
  prevention of pentylenetetrazol-induced convulsions: prevented convulsions

## CCC1(c2ccncc2)CCC(=O)NC1=O (stereo not drawn) [3-ethyl-3-(4-pyridyl)glutarimide, 3-ethyl-3-(4-pyridyl)-2,6-piperidinedione]
Desmolase [1]
  Desmolase inhibition (in words): inhibits aromatase but not desmolase
Desmolase [1]; 7 micromolar (14C) cholesterol
  IC50 Desmolase: None
[3]
  percentage of tumours which regress (in words): shows a similar effect
  No. tumours grown by more than 100%: 8 tumours
  No. tumours grown by up to 100%: 6 tumours
  No. tumours regressed but by less than 50%: 3 tumours
  No. tumours regressed by 50% or more: 9 tumours
  No. tumours with no change: 1 tumours
[3]; [9]
  inhibition of tumour growth (in words): at least as effective an inhibitor of tumour growth in this assay as aminoglutethimide
[4]; 50 mg
  time within which salt came out of solution: ≤ 15 min
Central nervous system [6]; 200 mg/kg i.p.
  Abnormal gait: -
  Corneal reflex: +
  Flexor reflex: +
  Grooming: -
  Motor activity: N
  Righting reflex: +
  Tremors: -
  Twitches: -
  observable differences from control mice (in words): no grossly observable differences from the control mice
  Passivity: 0
Central nervous system [6]; 300 mg/kg i.p.
  Abnormal gait: -
  Corneal reflex: +
  Flexor reflex: +
  Grooming: +
  Motor activity: N
  Righting reflex: +
  Tremors: -
  Twitches: -
  spontaneous motor activity and struggle response (in words): some mice showed slight reduction in spontaneous motor activity and diminished struggle response
Central nervous system [6]; 400 mg/kg i.p.
  Corneal reflex: +
  Flexor reflex: +
  Grooming: +
  Motor activity: Dec
  Righting reflex: +
  Tremors: -
  Twitches: -
  activity, passivity and hindlimb control (in words): all mice were noticeably less active, more passive and had lost some control of their hindlimbs
  reflexes (in words): All reflexes were still evident and the augmented flexor reflex, as had been noted with APG and CPZ-treated animals, was not present
  Passivity: 3
Central nervous system [6]; 500 mg/kg i.p., three mice
  lethality: lethal to the three mice tested
Central nervous system [6]; [9]
  sedative side-effects: lower than that of aminoglutethimide
Central nervous system [7]; 300 mg/kg i.p.
  effect on motor co-ordination (in words): little difference from the control
Central nervous system [7]; 400 mg/kg i.p.
  effect on motor co-ordination (in words): the mice became more rigid, and while falling off the faster rod more frequently they tended to slump round the slowly rotating rod, and so stay on for a longer time
Central nervous system [7]; 1 r.p.m., 15 min, 300 mg/kg i.p.
  Falls/2 min: 0.6 ± 0.3 Falls/2 min
Central nervous system [7]; 1 r.p.m., 15 min, 400 mg/kg i.p.
  Falls/2 min: 0.8 ± 0.4 Falls/2 min
Central nervous system [7]; 1 r.p.m., 30 min, 400 mg/kg i.p.
  Falls/2 min: 0.4 ± 0.2 Falls/2 min
Central nervous system [7]; 3 r.p.m., 15 min, 300 mg/kg i.p.
  Falls/2 min: 1.5 ± 0.5 Falls/2 min
Central nervous system [7]; 3 r.p.m., 15 min, 400 mg/kg i.p.
  Falls/2 min: 4.8 ± 1.0 Falls/2 min
Central nervous system [7]; 3 r.p.m., 30 min, 300 mg/kg i.p.
  Falls/2 min: 2.0 ± 0.2 Falls/2 min
Central nervous system [7]; 3 r.p.m., 30 min, 400 mg/kg i.p.
  Falls/2 min: 3.6 ± 1.3 Falls/2 min
Central nervous system [7]
  time of peak effect after injection: 15 min
Central nervous system [2]; 400, 300 and 200 mg/kg i.p.
  prevention of pentylenetetrazol-induced convulsions: None of these doses prevented the pentylenetetrazol-induced convulsions
Central nervous system [2]; [9]
  anti-convulsant side-effects: lower than that of aminoglutethimide

## CCC1(c2ccccn2)CCC(=O)NC1=O (stereo not drawn) [3-ethyl-3-(2-pyridyl)-glutarimide]
[8]
  sedative, hypnotic or anti-convulsive effect: sedative and hypnotic effect
